Non-standard residues stand in square brackets, D forms with d. Residues, ends and D or L forms follow the SMILES beside them. No end group written: not given here. *: point of attachment. X1 = CC(C)CCC[C@@H](C)[C@H]1CC[C@H]2[C@@H]3CC=C4C[C@@H](OC(=O)C*)CC[C@]4(C)[C@H]3CC[C@]12C; Succinimide(1-Et,3-yl) = CCN1C(=O)CC(*)C1=O
Key:
Type in all cases: cell-based
rat NMUR2 = rat NMUR2 (Rattus norvegicus, UniProt Q9ESQ4); experiment: FLIPR calcium mobilization assay, rat NMUR2; set-up: expressed in transfected cells; host or cells: FLP-In CHO or HEK-293 FLP-In cells (pcDNA5); settings: for IC50: functional data, rat R2; for EC50: FLIPR
Description: (§1) Human, mouse or rat cDNAs encoding NMUR1 or NMUR2 (as described in Howard et al. Nature 406: 70-74 (2000) were subcloned in pcDNA5 (Invitrogen) and transfected into FLP-In CHO cells and HEK-293 FLP-In cells purchased from Invitrogen (Carlsbad, Calif.) using lipofectamine (Invitrogen). The Flp-In system allows integration and expression of a particular gene of interest at a specific genomic location utilizing the Flp recombinase from yeast. The transfected cells were selected by growth in medium containing 200 μg/mL hygromycin (Invitrogen). Populations were frozen at early passage numbers, and these stocks were used for further studies. Stable clones that expressed the mRNAs were identified functionally by FLIPR as well as by RT-PCR. […] Two different rodent NMUR1 cell lines were thus generated: one with the codon as predicted from the genomic databases and another cell line with an engineered methionine (ATG) as the start codon. Additionally, stable cell lines expressing the human receptors were generated in HEK-293/aeq17 cells which stably express the aequorin gene under the CMV promoter. The human NMUR2 cDNA was cloned into pcDNA3.1 and human NMUR1 was subcloned into pIRES-puro (Clontech, Mountain View, Calif.), after transfection cells were selected in media containing G418 and either hygromycin (NMUR2) or puromycin (NMUR1).
(§2) The NMU receptors signal primarily through Gαq/11 proteins; therefore calcium mobilization assays can be utilized for functional activity.
(§3) Stable cell lines expressing human and or rodent NMUR1 or human NMUR2 receptors were plated at a density of 12,000 cells per well overnight on poly-lysine coated 384-well black-walled plates. The following day, the media was removed from the plates and the cells were subsequently loaded with Fluo-3 (Molecular Probes), a calcium sensitive dye, diluted in FLIPR buffer (1× Hank's buffered saline containing 20 mM HEPES, 0.1% BSA, 2.5 mM probenecid (Sigma) and 1.6 mM TR40). All reagents are from Invitrogen unless otherwise noted. Peptide stocks were resuspended in DMSO at a stock concentration of 2 mM and diluted in FLIPR buffer on the day of the experiment to a 4 μM working stock solution.
(§4) After a 90 minute incubation at room-temperature, cell plates were loaded onto a FLIPR (Molecular Devices) to monitor cellular fluorescence (excitation=488 nm; emission=540 nm) before and after compound/peptide addition. Eight to twelve point dose responses were tested on NMUR-expressing cell lines using FLIPR with 1 μM peptide as the highest dose. The response after peptide addition was taken as the maximum fluorescence units minus the fluorescence immediately prior to stimulation for each well. EC50 values were calculated using GraphPad Prism (San Diego, Calif.) software.
(§5) In vitro responses of Neuromedin U receptor agonists (NMU1 to NMU25) in the FLIPR assay for human (Table 3), mouse (Table 4) and rat (Table 5) NMUR1 and NMUR2. EC50s are reported in nM values. Percent activity refers to the maximum response at 1 μM compared to the hNMU-25 response at the same concentration. NT=not tested.

hNMUR2 = hNMUR2 (Homo sapiens, UniProt Q9GZQ4); experiment: FLIPR calcium mobilization assay, human NMUR2; set-up: expressed in transfected cells; host or cells: FLP-In CHO or HEK-293 FLP-In cells (pcDNA5); HEK-293/aeq17 lines (pcDNA3.1) were also made; settings: for EC50: FLIPR
Description: as §1, §2, §3, §4, §5

rat NMUR1-TTG = molecular target: T1, rat NMUR1-TTG (Rattus norvegicus, UniProt Q9JJI5); experiment: FLIPR calcium mobilization assay, rat NMUR1-TTG; set-up: expressed in transfected cells; host or cells: FLP-In CHO or HEK-293 FLP-In cells (pcDNA5)
T1 sequence (Q9JJI5 1-425): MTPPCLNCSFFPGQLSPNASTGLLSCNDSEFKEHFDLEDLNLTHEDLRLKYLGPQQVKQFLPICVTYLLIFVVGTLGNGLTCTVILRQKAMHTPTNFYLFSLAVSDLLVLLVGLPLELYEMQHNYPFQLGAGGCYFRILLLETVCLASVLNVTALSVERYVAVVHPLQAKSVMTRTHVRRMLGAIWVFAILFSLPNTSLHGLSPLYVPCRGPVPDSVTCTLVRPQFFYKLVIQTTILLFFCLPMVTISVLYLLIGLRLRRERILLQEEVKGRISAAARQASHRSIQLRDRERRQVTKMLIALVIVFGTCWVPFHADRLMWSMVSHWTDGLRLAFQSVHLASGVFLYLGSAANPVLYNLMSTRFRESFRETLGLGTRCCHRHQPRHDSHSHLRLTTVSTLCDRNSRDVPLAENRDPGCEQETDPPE
Description: as §1, §2, §3, §4, §5

hNMUR1 = molecular target: T2, hNMUR1 (Homo sapiens, UniProt Q9HB89); experiment: FLIPR calcium mobilization assay, human NMUR1; set-up: expressed in transfected cells; host or cells: FLP-In CHO or HEK-293 FLP-In cells (pcDNA5); HEK-293/aeq17 lines (pIRES-puro) were also made; settings: for EC50: FLIPR
T2 sequence (Q9HB89 1-426): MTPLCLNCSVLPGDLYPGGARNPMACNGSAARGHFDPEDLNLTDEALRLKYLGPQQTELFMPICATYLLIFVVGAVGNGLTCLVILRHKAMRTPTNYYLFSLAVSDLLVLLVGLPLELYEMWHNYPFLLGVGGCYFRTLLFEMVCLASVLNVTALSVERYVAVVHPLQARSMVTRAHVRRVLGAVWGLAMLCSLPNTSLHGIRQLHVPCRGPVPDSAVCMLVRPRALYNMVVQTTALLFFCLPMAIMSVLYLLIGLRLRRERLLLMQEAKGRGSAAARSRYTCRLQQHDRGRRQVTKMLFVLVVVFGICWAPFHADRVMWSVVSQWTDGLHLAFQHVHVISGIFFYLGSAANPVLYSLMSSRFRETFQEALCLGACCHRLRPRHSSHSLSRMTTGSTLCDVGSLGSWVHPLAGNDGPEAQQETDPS
Description: as §1, §2, §3, §4, §5

[1] = maximum response at 1 μM compared to hNMU-25, rat NMUR2
[2] = maximum response at 1 μM compared to hNMU-25, human NMUR2
[3] = maximum response at 1 μM compared to hNMU-25 response at same concentration, human NMUR1

Sequence of rat NMUR2 (Q9ESQ4 whole entry): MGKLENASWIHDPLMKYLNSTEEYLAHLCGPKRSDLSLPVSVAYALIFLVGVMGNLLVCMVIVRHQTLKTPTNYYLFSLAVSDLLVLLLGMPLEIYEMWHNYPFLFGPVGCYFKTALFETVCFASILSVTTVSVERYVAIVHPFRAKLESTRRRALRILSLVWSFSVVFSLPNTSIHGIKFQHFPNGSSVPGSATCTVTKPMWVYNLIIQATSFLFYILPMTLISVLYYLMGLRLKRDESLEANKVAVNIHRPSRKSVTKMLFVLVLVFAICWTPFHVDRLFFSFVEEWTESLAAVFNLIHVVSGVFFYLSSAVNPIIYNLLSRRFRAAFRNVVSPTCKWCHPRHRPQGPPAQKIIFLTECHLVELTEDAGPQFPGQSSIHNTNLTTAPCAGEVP
Sequence of hNMUR2 (Q9GZQ4 whole entry): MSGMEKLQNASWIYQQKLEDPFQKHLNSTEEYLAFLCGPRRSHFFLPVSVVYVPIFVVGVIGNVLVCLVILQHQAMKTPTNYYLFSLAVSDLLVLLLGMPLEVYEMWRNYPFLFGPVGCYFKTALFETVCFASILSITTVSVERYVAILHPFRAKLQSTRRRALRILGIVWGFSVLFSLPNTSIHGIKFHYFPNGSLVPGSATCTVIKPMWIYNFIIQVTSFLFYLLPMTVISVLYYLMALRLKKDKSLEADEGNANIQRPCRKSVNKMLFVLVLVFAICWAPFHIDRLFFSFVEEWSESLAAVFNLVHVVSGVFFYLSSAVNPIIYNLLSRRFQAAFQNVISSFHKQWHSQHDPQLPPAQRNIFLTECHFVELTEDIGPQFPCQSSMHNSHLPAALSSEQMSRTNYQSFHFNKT

| % Activity (rat NMUR2; [1]) [%] | EC50 (hNMUR2; human NMUR2) [nM] | % Activity (hNMUR2; [2]) [%] | % Activity (hNMUR1; [3]) [%] | Molecule | further results |
| --- | --- | --- | --- | --- | --- |
| 100 | 1.5 | 100 | 96.7 | CCN1C(=O)CC(SC[C@H](NC(C)=O)C(=O)NCC(=O)N[C@@H](Cc2ccc(O)cc2)C(=O)N[C@@H](Cc2ccccc2)C(=O)N[C@@H](CC(C)C)C(=O)N[C@@H](Cc2ccccc2)C(=O)N[C@@H](CCCNC(=N)N)C(=O)N2CCC[C@H]2C(=O)N[C@@H](CCCNC(=N)N)C(=O)N[C@@H](CC(N)=O)C(N)=O)C1=O (stereo partly drawn) [NMU6] (Ac-C(Succinimide(1-Et,3-yl))GYFLFRPRN-NH2) | – |
| 94.7 | – | 100 | 99.1 | CCN1C(=O)CC(SC[C@H](NC(C)=O)C(=O)N[C@@H](Cc2ccccc2)C(=O)N[C@@H](CCCNC(=N)N)C(=O)N[C@H](C(=O)N[C@@H](CC(=O)O)C(=O)N[C@@H](CCC(=O)O)C(=O)N[C@@H](CCC(=O)O)C(=O)N[C@@H](Cc2ccccc2)C(=O)N[C@@H](CCC(N)=O)C(=O)N[C@@H](CO)C(=O)N2CCC[C@H]2C(=O)N[C@@H](Cc2ccccc2)C(=O)N[C@@H](C)C(=O)N[C@@H](CO)C(=O)N[C@@H](CCC(N)=O)C(=O)N[C@@H](CO)C(=O)N[C@@H](CCCNC(=N)N)C(=O)NCC(=O)N[C@@H](Cc2ccc(O)cc2)C(=O)N[C@@H](Cc2ccccc2)C(=O)N[C@@H](CC(C)C)C(=O)N[C@@H](Cc2ccccc2)C(=O)N[C@@H](CCCNC(=N)N)C(=O)N2CCC[C@H]2C(=O)N[C@@H](CCCNC(=N)N)C(=O)N[C@@H](CC(N)=O)C(N)=O)C(C)C)C1=O (stereo partly drawn) [NMU8] (Ac-C(Succinimide(1-Et,3-yl))FRVDEEFQSPFASQSRGYFLFRPRN-NH2) | – |
| – | 91.1 | 94.3 | 94.4 | Ac-C2FRVDEEFQSPFASQSRGYFLFRPRN-CONH2 [NMU9] ({Ac-C(PEG 40 kDa)}-FRVDEEFQSPFASQSRGYFLFRPRN-NH2) [C2 = Cys(PEG)240 kDa from Nektar (mPEG2-MAL-40 k)] | EC50 (rat NMUR2; rat NMUR2): 4.5 nM; EC50 (hNMUR1; human NMUR1): 50.6 nM |
| 90.2 | – | – | 66.9 | Ac-C4-C4-FRVDEEFQSPFASQSRGYFLFRPRN-CONH2 ({Ac-C(PEG 20 kDa)-C(PEG 20 kDa)}-FRVDEEFQSPFASQSRGYFLFRPRN-NH2) [NMU23, C4 = Cys(PEG)20 kDa] | EC50 (rat NMUR2; rat NMUR2): 47.4 nM; % Activity (rat NMUR1-TTG; maximum response at 1 μM compared to hNMU-25, rat NMUR1-TTG): 39.8%; EC50 (hNMUR1; human NMUR1): 300 nM |
| 100 | 2.6 | 97.4 | 99.0 | Ac-FRVDEEFQSPFASQSRGYFLFRPRN-NH2 [NMU2] | EC50 (rat NMUR2; rat NMUR2): 2.2 nM; EC50 (hNMUR1; human NMUR1): 5.5 nM |
| 100 | – | 98.1 | 98.1 | Ac-FRVDEEFQSPFASQSRPYFLFRPRN-NH2 [NMU5] | – |
| 100 | 2.6 | 100 | 97.0 | H-FRVDEEFQSPFASQSRPYFLFRPRN-NH2 [NMU4] | – |

Continued, molecule first:

| Molecule | % Activity (rat NMUR2; [1]) [%] | EC50 (hNMUR2; human NMUR2) [nM] | % Activity (hNMUR2; [2]) [%] | % Activity (hNMUR1; [3]) [%] | further results |
| --- | --- | --- | --- | --- | --- |
| CC(C)C[C@@H](NC(=O)[C@H](Cc1ccccc1)NC(=O)[C@H](Cc1ccc(O)cc1)NC(=O)CNC(=O)[C@H](CCCNC(=N)N)NC(=O)[C@H](CO)NC(=O)[C@H](CCC(N)=O)NC(=O)[C@H](CO)NC(=O)[C@H](C)NC(=O)[C@H](Cc1ccccc1)NC(=O)[C@@H]1CCCN1C(=O)[C@H](CO)NC(=O)[C@H](CCC(N)=O)NC(=O)[C@H](Cc1ccccc1)NC(=O)[C@H](CCC(=O)O)NC(=O)[C@H](CCC(=O)O)NC(=O)[C@H](CC(=O)O)NC(=O)[C@@H](NC(=O)[C@H](CCCNC(=N)N)NC(=O)[C@@H](N)Cc1ccccc1)C(C)C)C(=O)N[C@@H](Cc1c[nH]c2ccccc12)C(=O)N[C@@H](CCCNC(=N)N)C(=O)N1CCC[C@H]1C(=O)N[C@@H](CCCNC(=N)N)C(=O)N[C@@H](CC(N)=O)C(N)=O [Agonist H] (H-FRVDEEFQSPFASQSRGYF[dL]WRPRN-NH2; N-terminus assumed) | – | – | – | – | IC50 (rat NMUR2): > 1000 nM; % Activity (rat NMUR2; functional, rat R2, relative to native hNMU responses): 42%; % Activity (hNMUR2; functional, human R2, relative to native hNMU responses): 0%; % Activity (rat NMUR1-TTG; functional, rat R1-TTG, relative to native hNMU responses): 91%; % Activity (hNMUR1; functional, human R1, relative to native hNMU responses): 90% |
| CC(=O)N[C@@H](CSCC(=O)O[C@H]1CC[C@@]2(C)C(=CC[C@H]3[C@@H]4CC[C@H]([C@H](C)CCCC(C)C)[C@@]4(C)CC[C@@H]32)C1)C(=O)NCC(=O)N[C@@H](Cc1ccc(O)cc1)C(=O)N[C@@H](Cc1ccccc1)C(=O)N[C@@H](CC(C)C)C(=O)N[C@@H](Cc1ccccc1)C(=O)N[C@@H](CCCNC(=N)N)C(=O)N1CCC[C@H]1C(=O)N[C@@H](CCCNC(=N)N)C(=O)N[C@@H](CC(N)=O)C(N)=O [NMU11] (Ac-C(X1)GYFLFRPRN-NH2) | 33.2 | – | 37.3 | 20.6 | – |
| GYFLFRPRN-NH2 [NMU3] | 100 | – | 100 | 98.9 | – |
| H-FRVDEEFQSPFASQSRGYFLFRPRN-NH2 [hNMU-25, reference compound] | – | – | – | – | IC50 (rat NMUR2): 1.6 nM |
